What was measured:
[1] = tested on: wild type murine macrophages; assay: Wild type murine macrophages in the presence of IFN-γ, IL-12 p40 ELISA; assay type: cell-based, mouse; conditions: FIG. 6 Panel A, 12 hours, RNA with DOTAP
Experimental: The following murine cells were isolated and incubated with various RNAs and other known TLR ligands in order to assess species-, cell type-, and signaling pathway-specificity: wild type macrophages in the presence of IFN-γ; MyD88-deficient macrophages in the presence of IFN-γ; J774 (mouse macrophage cell line); and RAW 264.7 (mouse macrophage cell line, e.g., ATCC TIB-71). Murine bone macrophages were generated from wild type or MyD88-deficient C57BL/6 mice by culturing bone marrow cells with 50 ng/ml M-CSF for 5 days. Cells were seeded at 25,000 cells/well and treated with 20 ng/ml IFN-γ for 16 hours. The murine macrophage cell lines RAW and J774 were seeded at 10,000 cells/well.
The following test and control agents were examined: R-848 (2 μg/ml), ODN 1668 (CpG DNA; 5′-[…]-3′; SEQ ID NO:7); LPS (1 μg/ml); poly IC (50 μg/ml); Pam3Cys (5 μg/ml); Ionomycin/TPA; the following RNA molecules, each with (“+Lipo”) and without DOTAP (10 μg/200 μl culture well): GUGUUUAC alone (RNA1); GUAGGCAC alone (RNA2); GUGUUUAC in combination with GUAGGCAC (RNA1/2); […] (RNA6; SEQ ID NO:8); […] (RNA9; SEQ ID NO:9); and the following DNA molecules, corresponding to RNA1, RNA2, and RNA1/2: GTGTTTAC alone (DNA1); GTAGGCAC alone (DNA2); and GTGTTTAC in combination with GTAGGCAC (DNA1/2). These RNA and DNA oligonucleotides each contained a phosphorothioate linkage between the penultimate and 3′ terminal nucleoside. RNA6 and RNA9 each contained in addition a phosphorothioate linkage between the penultimate and 5′ terminal nucleoside. RNA6 corresponds to a ribosomal RNA stem loop derived from Listeria monocytogenes. RNA9 corresponds to a stem loop derived from human immunodeficiency virus (HIV, an RNA retrovirus). The cells were cultured for 12 hours and supernatants were harvested. Murine IL-12 p40, IL-6, and TNF-α were measured by ELISA using matched antibody pairs from BD-Pharmingen according to the manufacturer's protocol.

[2] = tested on: human PBMC; assay: Human PBMC IL-12 p40 secretion, ELISA; assay type: cell-based; conditions: for IL-12 p40 response of human PBMC (in words): Example 1, FIG. 1, 16 hours, RNA 50 μg/ml with and without DOTAP, R-848 2 μg/ml, LPS 1 μg/ml, Pam3Cys 5 μg/ml, poly IC 50 μg/ml; for effect of DOTAP on the amount of IL-12 p40 secreted: Example 4, FIG. 5, presence versus absence of DOTAP, 16 hour incubation
Experimental: Human peripheral blood mononuclear cells (PBMCs) were isolated from healthy donors, plated at 3×10^5 cells/well, stimulated in vitro with various test and control immunostimulatory agents for 16 hours, and then analyzed by enzyme-linked immunosorbent assay (ELISA) using matched antibody pairs from BD-Pharmingen for secreted cytokines IL-12 p40 and TNF-α, performed according to the manufacturer's protocol. Also included were certain negative controls, including medium alone and DOTAP (10 μg/200 μl culture well; “Liposomes”) alone. The control immunostimulatory agents included the imidazoquinolone R-848 (2 μg/ml), lipopolysaccharide (LPS; 1 μg/ml), Pam3Cys (5 μg/ml), poly IC (50 μg/ml), and CpG DNA (50 μg/ml). These are reported ligands for TLR7, TLR4, TLR2, TLR3, and TLR9, respectively. Test immunostimulatory agents included the following RNA molecules, each at 50 μg/ml, with and without DOTAP (10 μg total “with Liposomes” and “without Liposomes”, respectively): GUGUUUAC alone; GUAGGCAC alone; GUGUUUAC in combination with GUAGGCAC; GUAGGA; GAAGGCAC; CUAGGCAC; CUCGGCAC; and CCCCCCCC. These RNA oligonucleotides each contained a phosphorothioate linkage between the penultimate and 3′ terminal nucleoside.
The experiments described in the preceding example were repeated with varied concentrations of RNA oligonucleotides in order to assess the dose-response behavior of human PBMCs to G,U-containing RNA oligonucleotides of the invention. A total of 10, 3 or 1 μg RNA was added to 10 μg DOTAP and then added to the 200 μl culture wells. After 16 hours IL-12 p40 and TNF-α ELISAs were performed as described in Example 1. […]
RNA oligomers GUGUGUGU, GUGUGUG, GUGUGU, GUGUG, GUGU, GUG, and GU, with and without DOTAP, were added over a range of concentrations to overnight cultures of human PBMC. Culture supernatants were harvested, and human TNF-α, IL-12 p40, and IFN-α were measured by ELISA using matched antibody pairs from BD-Pharmingen according to the manufacturer's protocol. […]

| Compound | IL-12 p40 secretion by wild type murine macrophages [1] | IL-12 p40 response of human PBMC (in words) [2] | effect of DOTAP on the amount of IL-12 p40 secreted [2] |
| --- | --- | --- | --- |
| CCCCCCCCCCCCCCCC(=O)N[C@@H](CSC[C@@H](COC(=O)CCCCCCCCCCCCCCC)OC(=O)CCCCCCCCCCCCCCC)C(=O)O [Pam3Cys, reference compound] | significant amounts | responsive | about the same immunostimultory effect |
| lipopolysaccharide [LPS, reference compound] | significant amounts | responsive | reduced immunostimultory effect |
| poly IC [reference compound] | significant amounts | responsive | reduced immunostimultory effect |

From patent US9428536B2, “Immunostimulatory G, U-containing oligoribonucleotides” (Zoetis Belgium SA, priority 2002, dated 2016)
